# In PubChem BioAssay (NCI):
#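 Assay format: 96-well plates, 48-hour exposure. At the TGI there is no net growth.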
# How the values were obtained:
# Assay in all cases: NCI anticancer screen, dose series, 48 h
# HOP-62 NSCLC = test system: HOP-62 NSCLC
# OVCAR-3 ovarian = test system: OVCAR-3 ovarian
# NCI/ADR-RES ovarian = test system: NCI/ADR-RES ovarian
# MDA-MB-435 = test system: MDA-MB-435
# ACHN renal = test system: ACHN renal
# NCI-H460 lung = test system: NCI-H460 lung
# SF-268 CNS = test system: SF-268 CNS
# MDA-N = test system: MDA-N
# 786-0 renal = test system: 786-0 renal
# SK-MEL-5 melanoma = test system: SK-MEL-5 melanoma
# OVCAR-4 ovarian = test system: OVCAR-4 ovarian
# SF-539 CNS = test system: SF-539 CNS
# SF-295 CNS = test system: SF-295 CNS
# MALME-3M melanoma = test system: MALME-3M melanoma
# SK-MEL-2 melanoma = test system: SK-MEL-2 melanoma
# SN12C renal = test system: SN12C renal
# MCF7 breast = test system: MCF7 breast
# UACC-62 melanoma = test system: UACC-62 melanoma
# HS 578T breast = test system: HS 578T breast
# MDA-MB-231 breast = test system: MDA-MB-231 breast
# UACC-257 melanoma = test system: UACC-257 melanoma
# T-47D breast = test system: T-47D breast
# HT29 colon = test system: HT29 colon
# A549 NSCLC = test system: A549 NSCLC
# HCT-116 colon = test system: HCT-116 colon
# RXF 393 renal = test system: RXF 393 renal
# EKVX NSCLC = test system: EKVX NSCLC
# HCC-2998 colon = test system: HCC-2998 colon
# SW-620 colon = test system: SW-620 colon
# SNB-75 CNS = test system: SNB-75 CNS
# SK-MEL-28 melanoma = test system: SK-MEL-28 melanoma
# OVCAR-5 ovarian = test system: OVCAR-5 ovarian
# A498 renal = test system: A498 renal
# SR leukemia = test system: SR leukemia
# HOP-92 NSCLC = test system: HOP-92 NSCLC
# NCI-H23 lung = test system: NCI-H23 lung
# CAKI-1 renal = test system: CAKI-1 renal
# NCI-H226 lung = test system: NCI-H226 lung
# PC-3 prostate = test system: PC-3 prostate
# COLO 205 colon = test system: COLO 205 colon
# HCT-15 colon = test system: HCT-15 colon
# TK-10 renal = test system: TK-10 renal
# KM12 colon = test system: KM12 colon
# UO-31 renal = test system: UO-31 renal
# BT-549 breast = test system: BT-549 breast
# IGROV1 ovarian = test system: IGROV1 ovarian
# OVCAR-8 ovarian = test system: OVCAR-8 ovarian
# MOLT-4 leukemia = test system: MOLT-4 leukemia
# LOX IMVI melanoma = test system: LOX IMVI melanoma
# RPMI-8226 leukemia = test system: RPMI-8226 leukemia
# HL-60(TB) leukemia = test system: HL-60(TB) leukemia
# CCRF-CEM leukemia = test system: CCRF-CEM leukemia
# U251 CNS = test system: U251 CNS
# SNB-19 CNS = test system: SNB-19 CNS
# SK-OV-3 ovarian = test system: SK-OV-3 ovarian
# M14 melanoma = test system: M14 melanoma
# DU-145 prostate = test system: DU-145 prostate
# NCI-H522 lung = test system: NCI-H522 lung
# K-562 leukemia = test system: K-562 leukemia
structure (smiles),measurement,setting,value
C[C@]12CC[C@H](O)C[C@H]1CC[C@@H]1[C@@H]2CC[C@]2(C)[C@@H](C3=CC(=O)OC3)[C@@H](O)C[C@]12O,TGI,HOP-62 NSCLC,2.48 µM
same,TGI,OVCAR-3 ovarian,1.73 µM
same,TGI,NCI/ADR-RES ovarian,3.9 µM
same,TGI,MDA-MB-435,10.3 µM
same,TGI,ACHN renal,1.82 µM
same,TGI,NCI-H460 lung,1.72 µM
same,TGI,SF-268 CNS,2.55 µM
same,TGI,MDA-N,5.7 µM
same,TGI,786-0 renal,2.36 µM
same,TGI,SK-MEL-5 melanoma,3.2 µM
same,TGI,OVCAR-4 ovarian,3.16 µM
same,TGI,SF-539 CNS,2.28 µM
same,TGI,SF-295 CNS,10.9 µM
same,TGI,MALME-3M melanoma,4.23 µM
same,TGI,SK-MEL-2 melanoma,5.02 µM
same,TGI,SN12C renal,3.25 µM
same,TGI,MCF7 breast,11.1 µM
same,TGI,UACC-62 melanoma,6.82 µM
same,TGI,HS 578T breast,> 21.8 µM
same,TGI,MDA-MB-231 breast,20.1 µM
same,TGI,UACC-257 melanoma,5.46 µM
same,TGI,T-47D breast,> 40.7 µM
same,TGI,HT29 colon,11 µM
same,TGI,A549 NSCLC,1.65 µM
same,TGI,HCT-116 colon,4.37 µM
same,TGI,RXF 393 renal,3.51 µM
same,TGI,EKVX NSCLC,2.78 µM
same,TGI,HCC-2998 colon,6.7 µM
same,TGI,SW-620 colon,14.6 µM
same,TGI,SNB-75 CNS,16.7 µM
same,TGI,SK-MEL-28 melanoma,25.6 µM
same,TGI,OVCAR-5 ovarian,8.03 µM
same,TGI,A498 renal,9.07 µM
same,TGI,SR leukemia,3.63 µM
same,TGI,HOP-92 NSCLC,> 100 µM
same,TGI,NCI-H23 lung,2.47 µM
same,TGI,CAKI-1 renal,3.15 µM
same,TGI,NCI-H226 lung,9.8 µM
same,TGI,PC-3 prostate,3.1 µM
same,TGI,COLO 205 colon,7.18 µM
same,TGI,HCT-15 colon,7.21 µM
same,TGI,TK-10 renal,1.99 µM
same,TGI,KM12 colon,18.2 µM
same,TGI,UO-31 renal,2.26 µM
same,TGI,BT-549 breast,7.32 µM
same,TGI,IGROV1 ovarian,37.3 µM
same,TGI,OVCAR-8 ovarian,14.6 µM
same,TGI,MOLT-4 leukemia,1.95 µM
same,TGI,LOX IMVI melanoma,12 µM
same,TGI,RPMI-8226 leukemia,8.07 µM
same,TGI,HL-60(TB) leukemia,3.45 µM
same,TGI,CCRF-CEM leukemia,2.42 µM
same,TGI,U251 CNS,5.08 µM
same,TGI,SNB-19 CNS,15.5 µM
same,TGI,SK-OV-3 ovarian,6.73 µM
same,TGI,M14 melanoma,5.58 µM
same,TGI,DU-145 prostate,2.71 µM
same,TGI,NCI-H522 lung,2.67 µM
same,TGI,K-562 leukemia,> 52.2 µM
CCOC(=O)c1cnc2n(c1=N)[C@H]1CCCC[C@@H]1N2,TGI,OVCAR-3 ovarian,> 100 µM
same,TGI,NCI/ADR-RES ovarian,> 100 µM
same,TGI,MDA-MB-435,> 100 µM
same,TGI,ACHN renal,> 100 µM
same,TGI,NCI-H460 lung,> 100 µM
same,TGI,SF-268 CNS,> 100 µM
same,TGI,MDA-N,> 100 µM
same,TGI,786-0 renal,> 100 µM
same,TGI,SK-MEL-5 melanoma,> 100 µM
same,TGI,OVCAR-4 ovarian,> 100 µM
same,TGI,SF-539 CNS,> 100 µM
same,TGI,SF-295 CNS,> 100 µM
same,TGI,MALME-3M melanoma,> 100 µM
same,TGI,SK-MEL-2 melanoma,> 100 µM
same,TGI,SN12C renal,> 100 µM
same,TGI,MCF7 breast,> 100 µM
same,TGI,UACC-62 melanoma,> 100 µM
same,TGI,HS 578T breast,> 100 µM
same,TGI,MDA-MB-231 breast,> 100 µM
same,TGI,UACC-257 melanoma,> 100 µM
same,TGI,T-47D breast,> 100 µM
same,TGI,HT29 colon,> 100 µM
same,TGI,A549 NSCLC,> 100 µM
same,TGI,HCT-116 colon,> 100 µM
same,TGI,RXF 393 renal,> 100 µM
same,TGI,EKVX NSCLC,> 100 µM
same,TGI,HCC-2998 colon,> 100 µM
same,TGI,SW-620 colon,> 100 µM
same,TGI,SNB-75 CNS,> 100 µM
same,TGI,SK-MEL-28 melanoma,> 100 µM
same,TGI,OVCAR-5 ovarian,> 100 µM
same,TGI,A498 renal,> 100 µM
same,TGI,SR leukemia,> 100 µM
same,TGI,HOP-92 NSCLC,> 100 µM
same,TGI,NCI-H23 lung,> 100 µM
same,TGI,CAKI-1 renal,> 100 µM
same,TGI,NCI-H226 lung,> 100 µM
same,TGI,PC-3 prostate,> 100 µM
same,TGI,COLO 205 colon,> 100 µM
same,TGI,HCT-15 colon,> 100 µM
same,TGI,KM12 colon,> 100 µM
same,TGI,UO-31 renal,> 100 µM
same,TGI,BT-549 breast,> 100 µM
same,TGI,IGROV1 ovarian,> 100 µM
same,TGI,OVCAR-8 ovarian,> 100 µM
same,TGI,MOLT-4 leukemia,> 100 µM
same,TGI,LOX IMVI melanoma,> 100 µM
same,TGI,RPMI-8226 leukemia,> 100 µM
same,TGI,HL-60(TB) leukemia,> 100 µM
same,TGI,U251 CNS,> 100 µM
same,TGI,SNB-19 CNS,> 100 µM
same,TGI,SK-OV-3 ovarian,> 100 µM
same,TGI,M14 melanoma,> 100 µM
same,TGI,DU-145 prostate,> 100 µM
same,TGI,NCI-H522 lung,> 100 µM
same,TGI,K-562 leukemia,> 100 µM
CC(C)NC(=O)OCc1c(COC(=O)NC(C)C)c(-c2cc[n+](COC(=O)C(C)(C)C)cc2)n2c1CCC2,TGI,HOP-62 NSCLC,> 100 µM
same,TGI,OVCAR-3 ovarian,> 100 µM
same,TGI,NCI/ADR-RES ovarian,> 100 µM
same,TGI,MDA-MB-435,> 100 µM
same,TGI,ACHN renal,> 100 µM
same,TGI,NCI-H460 lung,> 100 µM
same,TGI,SF-268 CNS,> 100 µM
same,TGI,MDA-N,> 100 µM
same,TGI,786-0 renal,> 100 µM
same,TGI,SK-MEL-5 melanoma,> 100 µM
same,TGI,OVCAR-4 ovarian,> 100 µM
same,TGI,SF-539 CNS,> 100 µM
same,TGI,SF-295 CNS,> 100 µM
same,TGI,MALME-3M melanoma,> 100 µM
same,TGI,SK-MEL-2 melanoma,> 100 µM
same,TGI,SN12C renal,> 100 µM
same,TGI,MCF7 breast,> 100 µM
same,TGI,UACC-62 melanoma,> 100 µM
same,TGI,HS 578T breast,> 100 µM
same,TGI,MDA-MB-231 breast,> 100 µM
same,TGI,UACC-257 melanoma,> 100 µM
same,TGI,T-47D breast,> 100 µM
same,TGI,HT29 colon,> 100 µM
same,TGI,A549 NSCLC,> 100 µM
same,TGI,HCT-116 colon,> 100 µM
same,TGI,RXF 393 renal,> 100 µM
same,TGI,EKVX NSCLC,> 100 µM
same,TGI,HCC-2998 colon,> 100 µM
same,TGI,SW-620 colon,> 100 µM
same,TGI,SNB-75 CNS,> 100 µM
same,TGI,SK-MEL-28 melanoma,> 100 µM
same,TGI,OVCAR-5 ovarian,> 100 µM
same,TGI,A498 renal,> 100 µM
same,TGI,SR leukemia,> 100 µM
same,TGI,HOP-92 NSCLC,> 100 µM
same,TGI,NCI-H23 lung,> 100 µM
same,TGI,CAKI-1 renal,> 100 µM
same,TGI,NCI-H226 lung,> 100 µM
same,TGI,PC-3 prostate,> 100 µM
same,TGI,COLO 205 colon,> 100 µM
same,TGI,HCT-15 colon,> 100 µM
same,TGI,TK-10 renal,> 100 µM
same,TGI,KM12 colon,> 100 µM
same,TGI,UO-31 renal,> 100 µM
same,TGI,BT-549 breast,> 100 µM
same,TGI,IGROV1 ovarian,> 100 µM
same,TGI,OVCAR-8 ovarian,> 100 µM
same,TGI,MOLT-4 leukemia,> 100 µM
same,TGI,LOX IMVI melanoma,> 100 µM
same,TGI,RPMI-8226 leukemia,> 100 µM
same,TGI,HL-60(TB) leukemia,> 100 µM
same,TGI,CCRF-CEM leukemia,> 100 µM
same,TGI,U251 CNS,> 100 µM
same,TGI,SNB-19 CNS,> 100 µM
same,TGI,SK-OV-3 ovarian,> 100 µM
same,TGI,M14 melanoma,> 100 µM
same,TGI,DU-145 prostate,> 100 µM
same,TGI,NCI-H522 lung,> 100 µM
same,TGI,K-562 leukemia,> 100 µM
